Experimental data reported in paper PMC5445010 (Chembiochem : a European journal of chemical biology, 2017).
Read-outs that look alike come from different tables or passages of the source.

Columns and labels:
IspH [1] = settings: cited from earlier work
IspG = settings: cited from earlier work
IspH [2] = type: biochemical

In the case of C#CCOP(=O)(O)OP(=O)(O)O [Compound 5, propargyl diphosphate], the “IspH inhibition (in words)” value (IspH [1]) is given as “low μM inhibitors” and the “IspG inhibition (in words)” value (IspG) is given as “low μM inhibitors”.
Nc1ccc2c(c1)CC1(C(=O)NC(=O)NC1=O)C1CN(Cc3ccccc3)CCN21 (stereo not shown) [Compound 9, 8-amino-3-benzyl-2,3,4,4a-tetrahydro-1H,2′H,6H-spiro[pyrazino[1,2-a]quinoline-5,5′-pyrimidine]-2′,4′,6′ (1′H,3′H)-trione] gave a Ki (IspH [2]; read-out: Ki of barbiturate analogs, IspH (summary over enzymes)) of 0.5 to 3 µM.
In the case of C#CCO [propargyl alcohol], the Ki (IspH [2]; read-out: IspH inhibition Ki) is reported as > 10000 µM.
